Our source for the IC50 values is patent publication US20130060023A1, “Compounds useful for treating neurodegenerative disorders” (Satori Pharmaceuticals, Inc., priority 2011, published 2013).

Common to all, as to assay type: cell-based
Common to all, as to conditions: Homo sapiens, 5 hours at 37° C., 1% DMSO

The test system of test [1] is Aβ-42. As to the kind of experiment: Aβ-42 level in conditioned media of 2B7 cells, MSD 3-PLEX ELISA. The method, then: (§1) Assays were conducted to determine the ability of a Compound of Formula I to modulate […], […], and Aβ-38. μELISA Plates: Human (6E10) Ab 3-PLEX ELISA kits were purchased from Meso Scale Discovery Labs, 9328 Gaither Road, Gaithersburg, Md. 20877 (Catalog Number […]-3). Plates with capture antibodies were blocked for 1-2 hours at room temperature with 150 μL of the manufactures blocking reagent. Conditioned Media: Cultured 2B7 cells in 96 well plate with 250 μL of media per well until confluent; Prepared serial dilutions of compounds in DMSO at 100× the final desired concentration; Washed wells with 2B7 cells 1× with 250 μL of media; Diluted DMSO stocks 1:100 into media: • Added 250 μL of media containing compounds (1% DMSO) to wells with 2B7 cells for 5 hours at 37° C. ELISA Sample Prep: Diluted conditioned media: 1 part media with 1% DMSO and 1 part blocking buffer; 150 μL of the 250 μL of conditioned media were used. Standard Curve Sample Prep: Prepared per manufacturer's protocol (see above). […] Final Wash and Readout: Washed wells 5× with MSD wash buffer; Added 150 μL 2×MSD read buffer; Read with MSD imager. […] Data Analysis: Aβ peptide levels for each peptide were calculated from the standard curve using the MSD software provided with the MSD 2400 Imager. Percent vehicle values for each compound dosage were then calculated and fit to a 4 parameter curve generating IC50 values.

In test [2] the test system is Aβ-40. As to the kind of experiment: Aβ-40 level in conditioned media of 2B7 cells, MSD 3-PLEX ELISA. The method, then: as §1
For test [3], the system named is Aβ-38. The experiment in a line: Aβ-38 level in conditioned media of 2B7 cells, MSD 3-PLEX ELISA. As to the method:
as §1
(In general: In an ELISA, binding on a coated surface is turned into a signal by an enzyme label.)

Each structure is given as a SMILES string. pIC50: −log10 of the molar value. Where two headings read alike, the source gives them in different places.

Regarding `CC(C)[C@@H](OC(=O)N1CCC1)[C@H]1C[C@@H](C)[C@H]2[C@H](O1)[C@H](O)[C@@]1(C)[C@@H]3CC[C@H]4C(C)(C)[C@@H](O[C@H]5CN([C@@H]6CCNC6=O)CCO5)CC[C@@]45C[C@@]35CC[C@]21C` [Compound I-1], the pIC50 was below 5.30 in test [1] (inflection of 4 parameter curve, read-out: Aβ 42 DR IC50 Inflection); 6.30 to 7.00 in test [1] (read-out: Aβ 42 IC50); below 5.30 in test [2] (inflection of 4 parameter curve, read-out: Aβ 40 DR IC50 Inflection); below 5.30 in test [2] (read-out: Aβ 40 IC50); below 5.30 in test [3] (inflection of 4 parameter curve, read-out: Aβ 38 DR IC50 Inflection); 6.00 to 6.30 in test [3] (read-out: Aβ 38 IC50).

Usually pIC50 stands for −log10 of the IC50, conventionally taken in molar units.
